Data from patent US9708368B2, “Linear peptide antibiotics” (priority 2012, dated 2017).
Converted amounts (≈) assume the structure as drawn. Square brackets hold non-standard residues; d marks the D form. Peptide text beside a SMILES is read from it. * marks the point of attachment. Biphenylcarbonyl(4'-Bu) = CCCCc1ccc(-c2ccc(C(=O)*)cc2)cc1; X1 = C[C@H](N*)B1OC2C[C@@H]3C[C@@H](C3(C)C)[C@]2(C)O1; Benzoyl(4-(4-Cl-Ph)) = O=C(c1ccc(-c2ccc(Cl)cc2)cc1)*; Lys(Me3) = C[N+](C)(C)CCCC[C@H](N)C(=O)O; Pro(4S-NH2) = N[C@@H]1CN[C@H](C(=O)O)C1; X21 = CCCCc1ccc(-c2ncc(C(=O)*)s2)cc1; Decanoyl = CCCCCCCCCC(=O)*; boroAla = C[C@H](N*)B(O)O; Dab = NCC[C@H](N)C(=O)O; Abu = CC[C@H](N)C(=O)O; Dap = NC[C@H](N)C(=O)O; βAla = NCCC(=O)O

Tests used:
[1] = biological target: E. coli SPase (Escherichia coli, UniProt P00803); experiment: Biochemical SPase activity assay (fluorogenic peptide substrate), E. coli enzyme
[2] = biological target: S. aureus SPase (Staphylococcus aureus, UniProt P0A070); experiment: biochemical
[3] = tested on: methicillin resistant Staphylococcus aureus (MRSA) strain USA300 (NRS384); details: Method B, 35° C., 22 hours
[4] = tested on: Escherichia coli strain MC4100 IMP-4213, which harbors an LptD mutation; details: Method B; E. coli MC4100 IMP-4213 (LptD mutation); 35° C., 22 hours
Procedure, shortened: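 Two-fold serial dilutions of compound inoculated at final OD600 0.0005, incubated static at 35 °C for 22 h, and growth read visually.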

In the case of `CC(C)C[C@H](NC(=O)[C@H](C)NC(=O)[C@H](CCCCN)NC(=O)[C@H](CCCCN)NC(=O)c1ccc(-c2ccc(Cl)cc2)cc1)C(=O)N[C@@H](C)B1OC2C[C@@H]3C[C@@H](C3(C)C)[C@]2(C)O1` (some centres unmarked) [Compound 145] ({Benzoyl(4-(4-Cl-Ph))}-KKAL-X1), the IC50 [1] is reported as 39 nM, the IC50 [2] is reported as 240 nM and the “MIC (μg/mL) S. aureus” value [3] is reported as 3.2 µg/mL (≈ 3.64 µM). The “MIC (μg/mL) E. coli” value [4] was 5 µg/mL (≈ 5.69 µM).

For `CCCCc1ccc(-c2ccc(CN[C@@H](CCN)C(=O)N[C@H](C(=O)N[C@@H](C)C(=O)N[C@@H](CCCCN)C(=O)N[C@@H](C)B3OC4C[C@@H]5C[C@@H](C5(C)C)[C@]4(C)O3)[C@@H](C)O)cc2)cc1` (some centres unmarked) [Compound 266], the IC50 [1] was 22 nM, the IC50 [2] was 160 nM and the “MIC (μg/mL) S. aureus” value [3] was 0.5 µg/mL (≈ 0.591 µM). For the same compound, the “MIC (μg/mL) E. coli” value [4] was 1 µg/mL (≈ 1.18 µM).

`CCCCc1ccc(-c2ccc(C(=O)NCCC(=O)N[C@@H](CCCCN)C(=O)N[C@H](C(=O)N[C@@H](C)C(=O)N[C@@H](Cc3c[nH]cn3)C(=O)N[C@@H](C)B3OC4C[C@@H]5C[C@@H](C5(C)C)[C@]4(C)O3)[C@@H](C)O)cc2)cc1` (some centres unmarked) [Compound 196] ({Biphenylcarbonyl(4'-Bu)-βAla}-KTAH-X1) was tested, and the IC50 [1] was 8.8 nM, the IC50 [2] was 5.7 nM and the “MIC (μg/mL) S. aureus” value [3] was 0.66 µg/mL (≈ 0.682 µM). For the same compound, the “MIC (μg/mL) E. coli” value [4] was 2.5 µg/mL (≈ 2.58 µM).

`CCCCc1ccc(-c2ccc(C(=O)N[C@@H](CCCC[N+](C)(C)C)C(=O)N[C@H](C(=O)N[C@@H](C)C(=O)N[C@@H](CCCCN)C(=O)N[C@@H](C)B(O)O)[C@@H](C)O)cc2)cc1` [Compound 159] ({Biphenylcarbonyl(4'-Bu)}-[Lys(Me3)]TAK-boroAla) was tested, and the IC50 [1] was 240 nM, the IC50 [2] was 86 nM and the “MIC (μg/mL) S. aureus” value [3] was 1 µg/mL. The “MIC (μg/mL) E. coli” value [4] was 16 µg/mL.

`CCCCc1ccc(-c2ccc(C(=O)N3C[C@@H](N)C[C@H]3C(=O)N3CCC[C@H]3C(=O)N[C@@H](C)C(=O)N[C@@H](CCCCN)C(=O)N[C@@H](C)B3OC4C[C@@H]5C[C@@H](C5(C)C)[C@]4(C)O3)cc2)cc1` (stereo partly drawn) [Compound 181] ({Biphenylcarbonyl(4'-Bu)}-[Pro(4S-NH2)]PAK-X1) was tested, and the IC50 [1] was 5.4 nM, the IC50 [2] was 18 nM and the “MIC (μg/mL) S. aureus” value [3] was 0.4 µg/mL (≈ 0.461 µM). For the same compound, the “MIC (μg/mL) E. coli” value [4] was 0.5 µg/mL (≈ 0.576 µM).

For `CCCCc1ccc(-c2ncc(C(=O)N[C@@H](CCN)C(=O)N[C@H](C(=O)N[C@@H](C)C(=O)N[C@@H](CCCCN)C(=O)N[C@@H](C)B3OC4C[C@@H]5C[C@@H](C5(C)C)[C@]4(C)O3)[C@@H](C)O)s2)cc1` (some centres unmarked) [Compound 248] (X21-[Dab]TAK-X1), the IC50 [1] was 11 nM, the IC50 [2] was 170 nM and the “MIC (μg/mL) S. aureus” value [3] was 0.25 µg/mL (≈ 0.288 µM). For the same compound, the “MIC (μg/mL) E. coli” value [4] was 0.25 µg/mL (≈ 0.288 µM).

In the case of `C[C@H](NC(=O)[C@H](CCCCN)NC(=O)[C@H](C)NC(=O)[C@@H](NC(=O)[C@H](CCN)NC(=O)c1ccc(-c2ccc(C(F)(F)F)cc2)cc1)[C@@H](C)O)B1OC2C[C@@H]3C[C@@H](C3(C)C)[C@]2(C)O1` (some centres unmarked) [Compound 237], the IC50 [1] is reported as 16 nM, the IC50 [2] is reported as 210 nM and the “MIC (μg/mL) S. aureus” value [3] is reported as 0.71 µg/mL (≈ 0.814 µM). The “MIC (μg/mL) E. coli” value [4] was 2 µg/mL (≈ 2.29 µM).

`CCCCc1ccc(-c2ccc(CN3CCC(C(=O)N[C@H](C(=O)N[C@@H](C)C(=O)N[C@@H](CCCCN)C(=O)N[C@@H](C)B4OC5C[C@@H]6C[C@@H](C6(C)C)[C@]5(C)O4)[C@@H](C)O)CC3)cc2)cc1` (some centres unmarked) [Compound 273] was tested, and the IC50 [1] was 470 nM, the IC50 [2] was 9.8 nM and the “MIC (μg/mL) S. aureus” value [3] was 0.088 µg/mL (≈ 0.103 µM). For the same compound, the “MIC (μg/mL) E. coli” value [4] was 8 µg/mL (≈ 9.34 µM).

In the case of `CCCCc1ccc(-c2ccc(C(=O)N[C@@H](CCN)C(=O)N[C@@H](CCN)C(=O)N[C@@H](C)C(=O)N[C@@H](CC)C(=O)N[C@@H](C)B3OC4C[C@@H]5C[C@@H](C5(C)C)[C@]4(C)O3)cc2)cc1` (some centres unmarked) [Compound 182] ({Biphenylcarbonyl(4'-Bu)}-[Dab][Dab]A[Abu]-X1), the IC50 [1] is reported as 35 nM, the IC50 [2] is reported as 1100 nM and the “MIC (μg/mL) S. aureus” value [3] is reported as 4 µg/mL (≈ 4.9 µM). For the same compound, the “MIC (μg/mL) E. coli” value [4] was 0.71 µg/mL (≈ 0.87 µM).

In the case of `CC(C)C[C@H](NC(=O)[C@H](C)NC(=O)[C@H](CCN)NC(=O)[C@H](CCN)NC(=O)c1ccc(-c2ccc(Cl)cc2)cc1)C(=O)N[C@@H](C)B1OC2C[C@@H]3C[C@@H](C3(C)C)[C@]2(C)O1` (some centres unmarked) [Compound 173] ({Benzoyl(4-(4-Cl-Ph))}-[Dab][Dab]AL-X1), the IC50 [1] is reported as 69 nM, the IC50 [2] is reported as 550 nM and the “MIC (μg/mL) S. aureus” value [3] is reported as 2 µg/mL (≈ 2.43 µM). The “MIC (μg/mL) E. coli” value [4] was 2 µg/mL (≈ 2.43 µM).

For `CCCCCCCCCC(=O)N[C@@H](CN)C(=O)N[C@H](C(=O)N[C@@H](C)C(=O)N[C@@H](CCCCN)C(=O)N[C@@H](C)B1OC2C[C@@H]3C[C@@H](C3(C)C)[C@]2(C)O1)[C@@H](C)O` (some centres unmarked) [Compound 169] (Decanoyl-[Dap]TAK-X1), the IC50 [1] was 3.9 nM, the IC50 [2] was 87 nM and the “MIC (μg/mL) S. aureus” value [3] was 3.2 µg/mL (≈ 4.19 µM). For the same compound, the “MIC (μg/mL) E. coli” value [4] was 11 µg/mL (≈ 14.4 µM).
